Data on five compounds can be found in patent publication US12370178B2, “Tinostamustine for use in the treatment of t-cell prolymphocytic leukaemia” (Purdue Pharma L.P., priority 2017, dated 2025).

In series [1] the test system is healthy CD3+ T-cells. The series can be described thus: Healthy CD3+ T-cell cytotoxicity. It counts as cell-based, human. Particulars: selectivity T-PLL over healthy T-cells. From the text: (§1) Healthy CD3+ T-cells were isolated from healthy human donors.
The nature of series [2]: Healthy CD3+ T-cell cytotoxicity. In kind it is cell-based, human. Particulars: human, healthy CD3+ T-cells, suspension culture; read-out: LC50 (the source's name).
From the text: as §1

Series [3] has as its system primary human T-PLL cells. Nature of the series: cells. Particulars: 48 h, read-out: LC50.
Experimental: (§2) RPMI-1640 medium (Sigma-Aldrich) supplemented with 1% L-Glutamine (200 mM; Sigma-Aldrich), 10% fetal bovine serum (FBS) (Sigma-Aldrich) and Penicillin/Streptomycin (100 U/0.1M; PAA) was used for in-vitro experimentation on suspension cultures of primary T-PLL cells, healthy CD3+ T cells, HH cells, and in co-culture experiments with NKtert cells. Cell suspensions were maintained at a density of 1.0×10^6 cells/mL (primary T-PLL cells) and 2.5×10^5 cells/mL (HH cells) for all cell culture experiments.
(§3) EDO-S101 (EDO MundiPharma), and vorinostat (SAHA; SML0061-5 mg, Sigma-Aldrich) were dissolved in DMSO. […] Cells were treated with each compound (or compounds) at the indicated concentrations and times. Dosing was based on published ranges and IC50/LD50 titrations. Cell apoptosis was determined using dual staining for Annexin-V (AnxV) and 7AAD via flow cytometry.
(§4) To further evaluate apoptosis in cells treated with EDO-S101, primary human T-PLL cells were treated with either vorinostat, bendamustine, EDO-S101, or an equimolar combination of vorinostat and bendamustine, at 0.01 μM, 0.1 μM, 1 μM, 5 μM or 10 μM concentrations, and incubated for 48 hours. Following treatment, cell death was evaluated by staining cells with the apoptosis markers Annexin-V and 7-AAD, and the number of apoptotic cells quantified by flow cytometry. Each experiment was repeated for the indicated number of times, and the average number of apoptosis negative cells plotted and normalised relative to an untreated control sample. A dose response curve (FIG. 3a) for each treatment was subsequently plotted, and the LD50 (median lethal dose) of each treatment determined.
(§5) To evaluate the protections conferred by NKtert cells to primary human T-PLL cells, NKtert cells and T-PLL cells were co-cultured for treatment with EDO-S101. Primary T-PLL cells with (FIG. 3b) and without (FIG. 3c) co-cultures of NKtert cells were treated with increasing concentrations (0.1, 1, or 10 μM) of vorinostat, bendamustine, an equimolar combination of vorinostat and bendamustine, or EDO-S101, and incubated for 48 hours.
(§6) Following treatment, cell death was evaluated by staining cells with the apoptosis markers Annexin-V and 7-AAD, and the number of apoptotic cells quantified by flow cytometry. Each experiment was repeated for the indicated number of times, and the average number of apoptosis negative cells plotted as a ratio relative to an untreated control sample (FIG. 3b, FIG. 3c).
For series [4], the system named is HH cells. Nature of the series: HH cell viability, Annexin-V/7-AAD flow cytometry. Particulars: 48 hours treatment. In kind it is cell-based, human. As to the method: The alkylating agent bendamustine (MundiPharma) was dissolved in methanol.
Human primary T-PLL cells are unsuitable for cultivation under standard laboratory cell culture conditions, in part, due to their high levels of genomic heterogeneity and variable phenotypes. HH cells are derived from a highly chemotherapy resistant cutaneous lymphoma, and are suitable for cultivation under laboratory conditions. […] HH cells were therefore selected for the in vitro validation of EDO-S101.
To evaluate the cytotoxicity of EDO-S101 in comparison to bendamustine and vorinostat (SAHA), HH cells were treated with either EDO-S101, bendamustine, vorinostat or an equimolar bendamustine/vorinostat combination over a period 48 hours. Cells were treated with either 0.1 μM, 1 μM, 2.5 μM, 5 μM or 10 μM solutions of the indicated compounds (FIG. 1a).
Annexin-V specifically targets and identifies apoptotic cells. 7-AAD is a marker of late stage apoptotic, or necrotic cells. The number of Annexin-V and 7-AAD negative cells was counted for each sample.

The test system of series [5] is CD2-MTCP1 cells. The series can be described thus: CD2-MTCP1p13 leukaemia transfer model in mice. In kind it is in vivo. Particulars: for increase in leukemic blood leukocyte (WBC) count: Day 14 vs Day 9 post-transplantation, compared to control and fludarabine; for average post-mortem spleen weight: day 22 post-transplantation, compared to fludarabine or control. From the text: DBA2×C57B6JF1 mice were used as recipients in all experiments. Transplantable leukaemia/lymphoma cells derived from CD2-MTCP1p13 tg mice (Gritti et al, Blood 1998, 92, 268-73; blood, spleen, and bone marrow) were intraperitoneally injected into background-matched mice (to facilitate the generation of uniform cohorts). 1×10^7 cells from CD2-MTCP1p13 mice were intraperitoneally injected into syngeneic recipients (n=26). Starting on day 10 post-transplantation, mice with a homogeneous distribution of leukemic blood leukocytes (WBC) were selected and randomly assigned into four treatment groups. Each group was then treated with either vehicle control (DMSO), fludarabine (34 mg/kg days 10, 15, 17, 21), bendamustine (day 10 at 60 mg/kg, days 15, 17, 21 at 20 mg/kg), and EDO-S101 (day 10 at 50 mg/kg, days 15, 17, 21 at 20 mg/kg) on the indicated days at the indicated doses.
Mice were injected with leukaemia cells derived from CD2-MTCP1 mice, as previously described (FIG. 4a).
CD2-MTCP1 cells are an aggressive, transplantable subline and are suitable for in vivo analysis as a T-PLL like model. […] Each group was intravenously administered either fludarabine (34 mg/kg), bendamustine (Day 10, 60 mg/kg; Day 15-21, 20 mg/kg) or EDO-S101 (Day 10, 50 mg/kg; Day 15-21, 20 mg/kg) at the indicated doses on Day 10, Day 15, Day 17, […] Day 21 post-transplantation. Samples of blood were taken at regular intervals (Day 9 and Day 14 post-transplantation), and the mice sacrificed at 22 days post-transplantation (FIG. 4a).
The blood samples taken were analysed for leukemic blood leukocyte levels (WBC), and the average cell count in each group determined.
Following sacrifice of the mice on day 22 post-transplantation, the post-mortem spleen weights of each mouse were determined (FIG. 4c). The reduced average spleen weight in mouse cohorts treated with bendamustine or EDO-S101, compared to cohorts treated with fludarabine or a control, corroborate the findings previously discussed in FIG. 4b. Tumour manifestation was therefore shown to be less advanced in cohorts treated with EDO-S101 or single-agent bendamustine, compared to fludarabine treated or control cohorts.

Series [6] concerns T-PLL cells. The series can be described thus: Western blot analysis of patient T-PLL samples. It counts as cell-based, human. Particulars: 1 μM, 36 hours. As to the method:
FISH analysis used standard protocols (Vysis, Abbott).
T-PLL cells were cultured in suspension, and treated with either bendamustine (1 μM), vorinostat (1 μM), EDO-S101 (1 μM) or an equimolar combination of vorinostat/bendamustine (1 μM) for 36 hours at the indicated concentrations. After this time, the cells were harvested and lysed, the cell lysate sonicated, centrifuged to remove any cellular debris, and the supernatant collected. The protein concentration of each cell lysate solution (the supernatant) was determined and the western blot performed using standard methods.
The antibodies used were acHistone 3 (Sigma Aldrich), phospho-ATM Serine1981 (Sigma Aldrich), ATM (Sigma Aldrich), phospho-KAP-1 Serine824 (Sigma Aldrich), KAP-1 (Sigma Aldrich), phosphor-p53 Serine15 (Sigma Aldrich), acetyl-p53 (Sigma Aldrich), p53 (Sigma Aldrich), PARP (Sigma Aldrich), cleaved-PARP (Sigma Aldrich), and β-Actin (Sigma Aldrich).
After this time, the cells were harvested, lysed and protein expression levels determined by western blot analysis.
Staining for β-Actin was used as a loading control for each western blot ran (rows a to k, and rows l to o respectively).

Series [7] deals with T-PLL/NKtert co-cultured cells. The series can be described thus: T-PLL/NKtert co-culture apoptosis, Annexin-V/7-AAD flow cytometry. In kind it is cell-based, human. Particulars: 48 hours; for overcoming NKtert associated protection of co-cultured T-PLL cells: 0.1, 1 or 10 μM. As to the method:
For co-culture experiments human bone marrow stromal cells (BMSC) NKtert cells (RIKEN BRC, Japan) were seeded at concentrations of 1.5×10^4 cells/well (96 well plate) and incubated at 37° C. in 5% CO2. After 24 hours, NKtert cells at approximately 60-80% confluency were treated with 0.02 mg/mL Mitomycin C for 3 hours in […], and then washed twice with PBS (Life Technologies). After another 24 hours, 4×10^5 T-PLL cells were added per well (with and without feeder cell support) and treated for 48 hours with the indicated compounds.
Referring to FIG. 3b, the control sample Ø on the left hand graph is normalised to 1 for normal T-PLL cells.
For orientation: In flow cytometry, cells or beads pass a laser one at a time.

Series [8] concerns NKtert cells. The series can be described thus: NKtert bone marrow stromal cell viability, MTT assay. Particulars: 0.1, 1, 5 or 10 μM, 48 hours. As to the method: Cells were cultured in a HERAcell incubator (Thermo Scientific Heraeus) at 37° C. and 5% CO2 with 90% humidity. CD4+ mature T-cell leukemia HH cells were originally isolated from a patient with Sézary Syndrome (Starkebaum et al., 1991). NKtert (human bone marrow stromal cells [BMSC]) were purchased from RIKEN Cell Bank in 2011. Only cells derived from the original cell stock as purchased, and which had been propagated for 2 to 3 passages before long-term storage in liquid nitrogen, were used. Cell cultures were terminated after the 10th passage (4 to 6 weeks of being in culture). Cells were authenticated following thawing by evaluation of characteristic growth behaviour and by flow cytometry. Cells were routinely tested for the presence of mycoplasma, using standard PCR protocols (primers: for1: 5′-acaccatgggagytggtaat-3′, (SEQ ID No; 1) rev1: 5′-cttcwtcgattycagacccaaggcat-3 (SEQ ID NO: 2)′, for2: 5′-gtgsggmtggatcacctcct-3 (SEQ ID NO: 3)′, rev2: 5′-gcatccaccawawacyctt-3′ (SEQ ID NO: 4)).
Consequently, the effect on cell viability of NKtert bone marrow stromal cells (BMSC) feeders cells alone was also investigated. Cells were treated with either bendamustine, vorinostat, an equimolar combination of bendamustine and vorinostat, or EDO-S101, at either 0.1, 1, 5 or 10 μM concentrations, incubated for 48 hours, and cell viability assessed using MTT assays (FIG. 3d).
Background: Tetrazolium assays rely on reduction of a dye to a coloured formazan, in cell work by metabolically active cells.

Series [9] concerns primary human T-PLL cells.
Experimental: as §2, §3, §4, §5, §6
Series [10] concerns leukaemia/lymphoma cells derived from ΔJAK1 mice. Nature of the series: ΔJAK1 mature T-cell lymphoma transfer model in mice. Particulars: for mean survival: 18 mg/kg i.v. on Day 7, 10, 13, 17, 22. In kind it is in vivo. As to the method:
Transplantable leukaemia/lymphoma cells derived from ΔJAK1 mice (Heinrich et al, Mol. Ther. 2013, 21, 1160-8; nodal/spleen mature T-cell lymphoma based on insertional mutagenesis activating JAK1) were intravenously injected into background-matched mice (to facilitate the generation of uniform cohorts). 2.5×10^6 cells were transplanted intravenously into Rag1-deficient mice. […] Each treatment group was then treated with 18 mg/kg of either bendamustine, fludarabine, EDO-S101, or with vehicle control on days 7, 10, 13, 17, 22 (DMSO).
Mice were injected with leukaemia/lymphoma cells derived from ΔJAK1 mice, as previously described (FIG. 5). ΔJAK1 is a model for mature T-cell lymphoma. Mice were divided into four groups at random post-transplantation. Each group was intravenously administered either fludarabine (18 mg/kg), bendamustine (18 mg/kg) or EDO-S101 (18 mg/kg) at the indicated doses on Day 7, Day 10, Day 13, Day 17 and Day 22. The percentage survival of each cohort was plotted as a function of time (FIG. 5).

In series [11] the test system is T-PLL. Particulars: cited from earlier work.
Setting [12] is: vs bendamustine, vorinostat or combination.

Bounds are passed on as bounds.

In the case of `Cn1c(CCCCCCC(=O)NO)nc2cc(N(CCCl)CCCl)ccc21` [EDO-S101, 7-(5-(bis(2-chloroethyl)amino)-1-methyl-1H-benzo[d]imidazol-2-yl)-N-hydroxyheptanamide], in series [1], the “fold more potent against T-PLL cells compared to healthy CD3+ T-cells” value is “approximately 4 fold”. Moreover, the CC50 in [2] came out at 4.4 µM. For the same compound, in series [3], the CC50 is 1 µM. Also, the “LD50 (median lethal dose)” value in series [4] is 1.5 µM. In addition, in series [5], the “increase in leukemic blood leukocyte (WBC) count” value is listed as “significantly delayed” and the “average post-mortem spleen weight” value is given as “reduced”. For the same compound, in [6] (setting [12]), the “accumulation of acetyl-p53” value is “greatest accumulation”, the “accumulation of p-p53” value was “greatest accumulation”, the “cleaved PARP (cPARP)” value was “greatest increase” and the “levels of pATM” value was “largest increase”. In series [6] (setting [12]), the “levels of pKAP1” value was “largest increase” and the “levels of γH2AX” value is listed as “largest increase”. Besides, the “acetylation of histone3 (acHistone3)” value in series [6] (vs vorinostat or vorinostat + bendamustine) is recorded as “largest increase”. Besides, in series [7], the “overcoming NKtert associated protection of co-cultured T-PLL cells” value (from here on “overcoming NKtert associated protection”) is “overcame the protection conferred by the NKtert cells”. For the same compound, the “approximate cell death count” value in series [7] (co-cultured T-PLL/NKtert cells, 10 μM) is reported as “greater than 95%”. Besides, the “reduction in viability of NKtert cells” value in series [8] is given as “largely comparable”. Moreover, the “fold increase in potency against T-PLL cells compared to combination of vorinostat and bendamustine” value in [9] (LC50 1.0 μM vs 4.4 μM) was approximately 4 fold. Further, the “approximate cell death count” value in [9] (T-PLL cells monoculture, 10 μM, 48 hours) is “greater than 95%”. Besides, in [10] (18 mg/kg i.v.), the “increase in average survival time compared to bendamustine or fludarabine” value was not above 8 days. In series [10], this compound yielded a mean survival of 26 days.
Regarding `Cn1c(CCCC(=O)O)nc2cc(N(CCCl)CCCl)ccc21` [bendamustine, reference compound], in series [3], the CC50 is 7.3 µM. The “LD50 (median lethal dose)” value in series [4] stood at 8.0 µM. In addition, in series [5], the “increase in leukemic blood leukocyte (WBC) count” value was “significantly delayed” and the “average post-mortem spleen weight” value is listed as “reduced”. Further, the “overcoming NKtert associated protection” value in series [7] was “not as effective as EDO-S101”. In addition, in series [8], the “reduction in viability of NKtert cells” value is given as “did not have a pronounced concentration dependent effect”. For the same compound, the mean survival in [10] amounted to 18 days.
On to `Nc1nc(F)nc2c1ncn2[C@@H]1O[C@H](CO)[C@@H](O)[C@@H]1O` [fludarabine, reference compound], for which, in series [10], the mean survival was found to be 19 days.
`O=C(CCCCCCC(=O)Nc1ccccc1)NO` [vorinostat]: in [3], the CC50 came out at 20.4 µM. Moreover, in series [4], the “LD50 (median lethal dose)” value worked out at 2.7 µM. Further, the “overcoming NKtert associated protection” value in [7] is “not as effective as EDO-S101”.
“Alemtuzumab: monoclonal anti-CD52 antibody”: the overall response rates in series [11] (T-PLL patients) was 51-95%. Further, the median survival in series [11] (patients achieving a complete response) is reported as 15-19 months.
